Where two headings read alike, the source gives them in different places. Where only a bound is given, the exact number is not on record here.

In the test the target is T1, hT1R2/T1R3 taste receptor (Homo sapiens, UniProt Q7RTX0+Q8TE23).
T1 sequence (Q8TE23 20-839): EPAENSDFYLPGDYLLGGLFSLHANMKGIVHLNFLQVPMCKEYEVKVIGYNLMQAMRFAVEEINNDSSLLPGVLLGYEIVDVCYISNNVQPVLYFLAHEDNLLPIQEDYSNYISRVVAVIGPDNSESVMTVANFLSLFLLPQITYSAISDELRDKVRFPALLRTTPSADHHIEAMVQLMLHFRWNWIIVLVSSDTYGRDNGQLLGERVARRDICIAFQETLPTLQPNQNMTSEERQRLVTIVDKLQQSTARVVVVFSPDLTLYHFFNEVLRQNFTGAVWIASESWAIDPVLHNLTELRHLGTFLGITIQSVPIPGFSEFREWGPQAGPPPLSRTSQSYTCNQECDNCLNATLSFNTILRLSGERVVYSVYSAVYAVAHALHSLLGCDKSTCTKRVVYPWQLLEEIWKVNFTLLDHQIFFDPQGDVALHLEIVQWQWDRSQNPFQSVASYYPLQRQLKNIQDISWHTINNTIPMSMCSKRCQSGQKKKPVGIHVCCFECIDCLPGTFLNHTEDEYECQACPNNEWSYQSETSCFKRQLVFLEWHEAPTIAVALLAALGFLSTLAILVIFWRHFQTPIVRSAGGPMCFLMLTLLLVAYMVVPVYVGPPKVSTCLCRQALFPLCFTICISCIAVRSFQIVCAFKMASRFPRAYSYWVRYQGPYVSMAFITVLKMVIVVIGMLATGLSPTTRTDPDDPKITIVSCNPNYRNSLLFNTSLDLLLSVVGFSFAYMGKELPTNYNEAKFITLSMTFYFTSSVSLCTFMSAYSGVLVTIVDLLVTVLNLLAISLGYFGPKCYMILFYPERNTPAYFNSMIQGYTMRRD
T1 sequence (Q7RTX0 21-852): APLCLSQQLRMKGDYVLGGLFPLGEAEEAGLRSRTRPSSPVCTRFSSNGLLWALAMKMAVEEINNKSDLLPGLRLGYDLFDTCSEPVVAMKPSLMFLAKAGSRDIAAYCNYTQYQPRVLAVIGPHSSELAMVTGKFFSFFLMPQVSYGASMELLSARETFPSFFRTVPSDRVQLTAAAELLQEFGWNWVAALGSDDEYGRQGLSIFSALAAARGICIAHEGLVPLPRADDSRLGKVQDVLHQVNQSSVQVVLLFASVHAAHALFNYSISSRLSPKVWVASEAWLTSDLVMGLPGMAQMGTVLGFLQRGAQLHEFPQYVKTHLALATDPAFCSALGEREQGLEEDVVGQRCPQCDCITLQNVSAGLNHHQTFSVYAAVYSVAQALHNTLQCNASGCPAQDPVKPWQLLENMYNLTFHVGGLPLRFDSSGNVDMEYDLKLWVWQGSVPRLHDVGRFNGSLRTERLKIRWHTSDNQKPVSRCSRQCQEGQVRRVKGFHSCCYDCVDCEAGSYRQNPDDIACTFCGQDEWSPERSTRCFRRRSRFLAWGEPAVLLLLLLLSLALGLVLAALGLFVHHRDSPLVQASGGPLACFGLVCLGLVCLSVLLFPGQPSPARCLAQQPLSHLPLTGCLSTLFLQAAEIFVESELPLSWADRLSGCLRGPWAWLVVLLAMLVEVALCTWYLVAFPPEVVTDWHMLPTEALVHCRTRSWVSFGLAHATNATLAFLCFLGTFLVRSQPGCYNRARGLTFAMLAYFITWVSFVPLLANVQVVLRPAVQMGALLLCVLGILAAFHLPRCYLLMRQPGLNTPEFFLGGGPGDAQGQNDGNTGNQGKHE
Kind of test: agonist activity against the hT1R2/T1R3 taste receptor (sweet receptor based assay). The format is cell-based. As to the method:
Compounds described in this application show moderate to potent agonist effect on the sweet receptor based assay. Potencies (EC50 values, e.g. see Tables 1-3) for agonist activity were measured against the hT1R2/T1R3 taste receptor. FIG. 1 exemplifies the data generated during the screening to determine EC50 values.

Setting [1] is: agonist activity, hT1R2/T1R3, read-out: Sweet EC50.

For the molecule `COCc1cccc(C2=CCN(C(COC)C(=O)NCC(C)C)CC2)c1F` (stereo not shown) [Compound 55, 2-(4-(2-fluoro-3-(methoxymethyl)phenyl)-3,6-dihydropyridin-1(2H)-yl)-N-isobutyl-3-methoxypropanamide], the concentration giving a half-maximal response (EC50) under setting [1] came to 1.4 µM.

With `CC(C)CNC(=O)C(C)(C)N1CC=C(c2ccccc2F)CC1` [Compound 57], the EC50 under setting [1] was found to be 1.6 µM.

For the molecule `CC(C)(C(=O)NC1CC1)N1CCC(C#N)(c2cccc(F)c2F)CC1` [Compound 128], the 50% effective concentration (EC50) was determined as 1.7 µM.

Turning to `Cc1cccc(N2CCN(C(C)(C)C(=O)NCC3CCCC3)CC2)c1C` [Compound 15], under setting [1], the 50% effective concentration (EC50) was 6.9 µM.

With `Cc1cccnc1N1CCN(C(C)(C)C(=O)NCC(C)C)CC1` [Compound 41], the EC50 under setting [1] is > 10 µM.

Consider `CC(C)(C(=O)NC1CCCC1)N1CCC(c2ccccc2)CC1` [Compound 84], for which the EC50 under setting [1] was determined as 2.5 µM.

Consider `CC(C)CNC(=O)C(C)(C)N1CC=C(c2ccccc2C(=O)N(C)C)CC1` [Compound 73], for which the EC50 under setting [1] is > 10 µM.

As to `COCc1ccccc1C1=CCN(C(C)(C)C(=O)NCC(C)C)CC1` [Compound 64], the EC50 under setting [1] was > 10 µM.

As for `CC(C)CNC(=O)C(C)(C)N1CCC(c2cccc(C(=O)N(C)C)c2)CC1` [Compound 106], under setting [1], the EC50 is > 10 µM.

Consider `CC(C)CNC(=O)C(C)(C)N1CCC(c2ccccc2)CC1` [Compound 80, N-isobutyl-2-methyl-2-(4-phenylpiperidin-1-yl)propanamide], for which the concentration for a half-maximal effect (EC50) under setting [1] turned out to be 0.7 µM.

Turning to `Cc1ccncc1C1CCN(C(C)(C)C(=O)NCC(C)C)CC1` [Compound 107], the EC50 under setting [1] was > 10 µM.

Consider `COCc1ccc(C2CCN(C(C)(C)C(=O)NCC(C)C)CC2)c(F)c1` [Compound 102], for which the EC50 under setting [1] is > 10 µM.

As to `CC(C)CNC(=O)C(C)(C)N1CC=C(c2cccc(C(=O)N(C)C)c2)CC1` [Compound 74], the EC50 under setting [1] is > 10 µM.

With `CC(C)CNC(=O)C(C)(C)N1CC=C(c2cccc3c2OCO3)CC1` [Compound 72], under setting [1], the concentration giving a half-maximal response (EC50) is > 10 µM.

As to `COCC1(c2ccccc2)CCN(C(C)(C)C(=O)NCC(C)C)CC1` [Compound 120], the half-maximal effective concentration (EC50) is > 10 µM.

With `CC(C)(C)CNC(=O)C(C)(C)N1CCC(c2ccccc2)CC1` [Compound 88], under setting [1], the EC50 came to 4.2 µM.

Consider `CC(C)CNC(=O)C(C)(C)N1CCN(c2ccccc2F)CC1` [Compound 2, 2-(4-(2-fluorophenyl)piperazin-1-yl)-N-isobutyl-2-methylpropanamide], for which the EC50 under setting [1] was 6.8 µM.

As to `COCc1c(F)cccc1N1CCN(C(C)(C)C(=O)NCC(C)C)CC1` [Compound 5, 2-(4-(3-fluoro-2-(methoxymethyl)phenyl)piperazin-1-yl)-N-isobutyl-2-methylpropanamide], the EC50 under setting [1] turned out to be 2.1 µM.

`CC(C)CNC(=O)C(C)(C)N1CCN(c2ccc(F)cc2F)CC1` [Compound 37]: the EC50 under setting [1] is > 10 µM.

In the case of `CC(C)CNC(=O)C(C)(C)N1CCC(c2ccccc2F)CC1` [Compound 91], the concentration giving a half-maximal response (EC50) under setting [1] was 0.4 µM.

Take `CC(C)CNC(=O)C(C)(C)N1CCN(c2ccccc2C(F)(F)F)CC1` [Compound 50]: the EC50 under setting [1] was > 10 µM.

As to `CC(C)CNC(=O)C(C)(C)N1CCC(c2cccc(F)c2)CC1` [Compound 96], the EC50 under setting [1] worked out at 0.6 µM.

On to `Cc1ccccc1N1CCN(C(C)(C)C(=O)NCC(C)C)CC1` [Compound 46], for which the 50% effective concentration (EC50) under setting [1] was 4.3 µM.

As for `CC(C)CNC(=O)C(C)(C)N1CCN(c2cccc(F)c2F)CC1` [Compound 3, 2-(4-(2,3-difluorophenyl)piperazin-1-yl)-N-isobutyl-2-methylpropanamide], the EC50 under setting [1] was found to be 1.6 µM.

On to `Cc1cccc(N2CCN(CC(=O)NC3CC3)CC2)c1C` [Compound 31], for which the EC50 under setting [1] was > 10 µM.

In the case of `Cc1cccc(N2CCN(C(C)(C)C(=O)NCC(C)C)CC2)c1C` [Compound 10], the EC50 under setting [1] was determined as 2.8 µM.

With `COCc1ccccc1C1CCN(C(C)(C)C(=O)NCC(C)C)CC1` [Compound 110], the half-maximal effective concentration (EC50) under setting [1] is > 10 µM.

For the molecule `Cc1cccc(N2CCN(C(C)C(=O)NCC(C)C)CC2)c1C` (stereo not shown) [Compound 29], under setting [1], the EC50 was 1.4 µM.

Consider `CC(C)CNC(=O)C(C)(C)N1CCN(c2cccc(F)c2CO)CC1` [Compound 51, 2-(4-(3-fluoro-2-(hydroxymethyl)phenyl)piperazin-1-yl)-N-isobutyl-2-methylpropanamide], for which the concentration for a half-maximal effect (EC50) under setting [1] was > 10 µM.

Regarding `Cc1cccc(N2CCN(CC(=O)NCC(C)C)CC2)c1C` [Compound 12], the EC50 under setting [1] was found to be 9.7 µM.

On to `CC(C)CNC(=O)C(C)(C)N1CC=C(c2cncc(C#N)c2)CC1` [Compound 70], for which the 50% effective concentration (EC50) under setting [1] was > 10 µM.

In the case of `Cc1cccc(N2CCN(C(C)(C)C(=O)NCC(C)C)CC2)c1F` [Compound 36], under setting [1], the EC50 came out at 2.4 µM.

As to `CC(C)CNC(=O)C(C)(C)N1CCC(c2cccc(F)c2F)CC1` [Compound 94], under setting [1], the EC50 was 0.14 µM.

In the case of `COc1cccc(C2=CCN(C(C)(C)C(=O)NCC(C)C)CC2)c1F` [Compound 68], the concentration for a half-maximal effect (EC50) under setting [1] was > 10 µM.

The molecule `CCC(C)(C)NC(=O)C(C)(C)N1CCC(C#N)(c2cccc(F)c2F)CC1` [Compound 127] registered a half-maximal effective concentration (EC50) of 1.5 µM.

Turning to `Cc1cccc(N2CCN(C(C)(C)C(=O)NCCN(C)C)CC2)c1C` [Compound 23], the 50% effective concentration (EC50) under setting [1] was > 10 µM.

Regarding `CC(C)CNC(=O)C(C)(C)N1CCN(c2ccccc2)CC1` [Compound 34], under setting [1], the EC50 was > 10 µM.

Take `CC(C)CNC(=O)C(C)(C)N1CC=C(c2cccc(CN(C)C)c2)CC1` [Compound 71]: the concentration giving a half-maximal response (EC50) under setting [1] is > 10 µM.

`CC(C)CNC(=O)C(C)(C)N1CCC2(CC1)COc1ccccc12` [Compound 122]: the EC50 under setting [1] is 2.5 µM.

As to `Cc1cccc(N2CCN(C(C)(C)C(=O)NC3CCCCC3)CC2)c1C` [Compound 13], the EC50 under setting [1] amounted to 9.4 µM.

Regarding `Cc1cccc(N2CCN(C(C)(C)C(=O)NC(C)(C)CO)CC2)c1C` [Compound 24], under setting [1], the EC50 is > 10 µM.

Turning to `CCC(C)(C)NC(=O)C(C)(C)N1CCN(c2cccc(C)c2C)CC1` [Compound 19], the half-maximal effective concentration (EC50) under setting [1] was > 10 µM.

Take `CC(C)CNC(=O)C(C)(C)N1CCC(CO)(c2ccccc2)CC1` [Compound 119]: the concentration giving a half-maximal response (EC50) under setting [1] is > 10 µM.

For the molecule `COCC(C(=O)NCC(C)C)N1CCC(C#N)(c2cccc(F)c2F)CC1` (stereo not shown) [Compound 129], the concentration giving a half-maximal response (EC50) was 4.3 µM.

`COCc1cccc(C2CCN(C(C)(C)C(=O)NCC(C)C)CC2)c1` [Compound 111]: the EC50 under setting [1] stood at 3.1 µM.

`CC(C)CNC(=O)C(C)(C)N1CCc2ccccc2C1` [Compound 116]: the EC50 under setting [1] is 3.8 µM.

In the case of `CC(C)CNC(=O)C(C)(C)N1CCCC(c2ccccc2)CC1` (stereo not shown) [Compound 117], the EC50 under setting [1] was 10.9 µM.

On to `CC(C)CNC(=O)C(C)(C)N1CCN(c2c(F)cccc2F)CC1` [Compound 42], for which the EC50 under setting [1] was > 10 µM.

On to `COCCNC(=O)C(C)(C)N1CCN(c2cccc(C)c2C)CC1` [Compound 22], for which, under setting [1], the concentration giving a half-maximal response (EC50) is > 10 µM.

For the molecule `CC(C)CNC(=O)C(C)(C)N1CC=C(c2cccc(CO)c2F)CC1` [Compound 66], the EC50 under setting [1] was > 10 µM.

With `Cc1cccc(N2CCN(C(C)(C)C(=O)NCCC(C)C)CC2)c1C` [Compound 26], under setting [1], the EC50 amounted to 8 µM.

Consider `CC(C)CNC(=O)C(C)N1CCC(c2ccccc2)CC1` (stereo not shown) [Compound 90], for which the EC50 under setting [1] worked out at 4.7 µM.

As for `CC(C)CNC(=O)C(C)(C)N1CCC(O)(c2ccccc2)CC1` [Compound 123], the EC50 under setting [1] is > 10 µM.

In the case of `Cc1cccc(N2CCN(C(C)(C)C(=O)NCC(C)(C)C)CC2)c1C` [Compound 18], the EC50 under setting [1] was > 10 µM.

For the molecule `Cc1ccncc1C1=CCN(C(C)(C)C(=O)NCC(C)C)CC1` [Compound 75], the 50% effective concentration (EC50) under setting [1] was > 10 µM.

Broadly, the EC50 is the concentration needed to bring the measured effect to its halfway point.

The values above are taken from patent publication US20250280861A1, “SWEETENER COMPOSITIONS” (Firmenich Incorporated, priority 2022, published 2025).
